The values that follow come from PubChem BioAssay (NCI).

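Dose response: 5 concentrations. Exposure: 48 h. Format: 96-well plates. Endpoint: linear interpolation; highest concentration if not reached. TGI: concentration producing complete growth inhibition.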

Common to all, as to experiment: NCI tumour cell line growth inhibition, 48 h
The subject of assay [1] is MCF7 breast.
Assay [2] concerns OVCAR-4 ovarian.
Assay [3] has as its system NCI-H226 lung.
In assay [4] the test system is ACHN renal.
In assay [5] the test system is SW-620 colon.
For assay [6], the system named is UO-31 renal.
Assay [7] concerns EKVX NSCLC.
In assay [8] the test system is MALME-3M melanoma.
Assay [9] relates to MDA-N.
The test system of assay [10] is UACC-257 melanoma.
The test system of assay [11] is SNB-19 CNS.
Assay [12] concerns SF-268 CNS.
Assay [13] deals with COLO 205 colon.
For assay [14], the system named is PC-3 prostate.
For assay [15], the system named is T-47D breast.
Assay [16] concerns HOP-92 NSCLC.

With `N=C(/C=C/c1ccc(-c2cn3cc(/C=C/C(=N)N4CCCC4)ccc3n2)cc1)N1CCCC1`, the TGI in assay [1], in assay [2], in assay [3], in assay [4], in [5] and in assay [6] was over 100 µM in each case. In addition, the TGI in [7], in assay [8], in [9], in assay [10], in assay [11] and in assay [12] was over 100 µM throughout. Further, the TGI in assay [13], in assay [14], in assay [15] and in assay [16] was over 100 µM throughout.

In the case of `Cc1ccc(/C=C2\CN(C)CC3C(c4ccc(C)cc4)=C(C#N)C(=O)NC23)cc1` (stereo not drawn), the TGI in assay [1], in assay [2], in [3], in assay [4], in assay [5] and in assay [7] was over 50 µM each time. Also, the TGI in [8], in assay [9], in [10], in assay [11], in assay [12] and in [13] was over 50 µM in each case. Further, the TGI in [14], in assay [15] and in assay [16] was over 50 µM throughout.

Turning to `O/N=c1/ccn(O)c2ccccc12`, the TGI in assay [1] amounted to 7.49 µM; in assay [2] it was 4.43 µM; in [3], 7.14 µM; in assay [4], 2.67 µM; in assay [5] it was 11.8 µM; in assay [6], 3.93 µM. Moreover, the TGI in [7] turned out to be 11.2 µM; in assay [8], 18.9 µM; in assay [9], 17.5 µM; in [10], 21 µM; in [11], 14.1 µM; in [12], 5.74 µM. Further, the TGI in assay [13] was 4.74 µM; in assay [14], 8.88 µM; in assay [15], 10.3 µM; in assay [16] it was 8.65 µM.

As to `Cn1c(=O)n2n(c1=O)Cc1cccc3cccc(c13)C2`, the TGI in [1], in assay [2], in [3], in assay [4], in assay [5] and in [6] was over 100 µM in each case. In addition, the TGI in [7], in assay [8], in assay [9], in [10], in [11] and in assay [12] was over 100 µM throughout. The TGI in assay [13], in assay [14], in assay [15] and in assay [16] was over 100 µM in each case.

With `COc1cc2c(cc1OC)C1Cc3ccccc3CCN1CC2` (stereo not drawn), the TGI in [1], in [2], in assay [3], in assay [4], in [5] and in [6] was over 100 µM each time. Also, the TGI in assay [7], in [8], in assay [9], in assay [10], in assay [11] and in [12] was over 100 µM in each case. The TGI in assay [13], in assay [14], in assay [15] and in [16] was over 100 µM throughout.

For the compound `Cc1c2c(c(C)n1-c1ccccc1)C(=O)N(CCSC(=N)N)C2=O`, the TGI in [1], in [2], in [3], in assay [4], in assay [5] and in [6] was over 100 µM throughout. Also, the TGI in assay [7], in [8], in [9], in assay [10], in assay [11] and in assay [12] was over 100 µM throughout. The TGI in assay [13] was over 100 µM; in assay [14] it was over 100 µM; in assay [15], 73.6 µM; in assay [16] it was over 100 µM.

Consider `CC(C)(C)c1cc(C(=O)/C=C/c2ccc(O)c(O)c2O)cc(C(C)(C)C)c1O`, for which the TGI in assay [1] turned out to be 27.2 µM; in [2], 26.5 µM; in [3], 33.2 µM; in assay [4], 18.9 µM; in [5], 17.9 µM; in assay [6] it was 13.9 µM. Also, the TGI in assay [7] was 54 µM; in assay [8], over 67.5 µM; in assay [9], 28.9 µM; in assay [10], 10.6 µM; in [11] it was over 29.3 µM; in [12], over 51.4 µM. Moreover, the TGI in assay [13] was 26.3 µM; in [14], 15.7 µM; in [15], 13.3 µM; in assay [16], over 42.6 µM.

Turning to `O=C(CCCN1CCC2(CC1)C(=O)NC(=O)N2c1ccccc1)c1ccc(F)cc1`, the TGI in assay [1], in [2], in assay [3], in assay [4], in assay [5] and in assay [6] was over 100 µM throughout. Besides, the TGI in assay [7], in assay [8], in [9], in [10], in [11] and in assay [12] was over 100 µM each time. Further, the TGI in assay [13], in [14], in [15] and in [16] was over 100 µM in each case.

With `O=C1C(C(O)(C(F)(F)Cl)C(F)(F)Cl)CCC1C(O)(C(F)(F)Cl)C(F)(F)Cl` (stereo not drawn), the TGI in assay [1] is over 10 µM; in assay [2] it was over 10 µM; in assay [3], 9.46 µM; in assay [4], over 10 µM; in assay [5], over 10 µM; in assay [7], over 10 µM. Also, the TGI in assay [8], in assay [9], in [10], in assay [11], in assay [12] and in [13] was over 10 µM each time. Besides, the TGI in assay [14] is over 10 µM; in [15], over 10 µM; in assay [16], 5.39 µM.

Regarding `CSCCC(NCc1c(O)ccc2ccc(=O)oc12)C(=O)O` (stereo not drawn), the TGI in [1], in assay [2], in [3], in assay [4], in assay [5] and in assay [6] was over 100 µM throughout. In addition, the TGI in assay [7], in [8], in assay [9], in assay [10], in assay [11] and in [12] was over 100 µM each time. Further, the TGI in assay [13], in assay [14], in assay [15] and in [16] was over 100 µM in each case.

For the compound `N#Cc1cccc(C2ON=C(c3ccc([N+](=O)[O-])cc3)N2C23CC4CC(CC(C4)C2)C3)c1` (stereo not drawn), the TGI in assay [1] is over 100 µM; in assay [2] it was 76.8 µM; in assay [3], over 100 µM; in assay [4], over 100 µM; in assay [5], over 100 µM; in assay [6] it was over 100 µM. For the same compound, the TGI in assay [7], in assay [8], in assay [9], in assay [10], in assay [11] and in assay [12] was over 100 µM throughout. The TGI in [13], in [14], in assay [15] and in assay [16] was over 100 µM each time.

Consider `Cc1cccc(/C=N/NC(=S)NCc2ccccn2)n1`, for which the TGI in assay [1] was over 100 µM; in assay [2], over 100 µM; in assay [3], over 100 µM; in assay [4], 67.5 µM; in assay [5] it was over 100 µM; in assay [6], 60 µM. For the same compound, the TGI in assay [7] is over 100 µM; in [8], over 100 µM; in [9], over 100 µM; in assay [10], over 100 µM; in [11], over 100 µM; in assay [12], over 93 µM. Further, the TGI is over 100 µM in assay [13], over 100 µM in [14], over 100 µM in [15] and 98.5 µM in assay [16].

`CC12CC3CC/C(=N\O)C(C1)C3(N1CCOCC1)C/C2=N/O` (stereo not drawn): the TGI in assay [1], in [2], in [3], in assay [4], in assay [5] and in assay [6] was over 100 µM each time. The TGI in assay [7], in [8], in assay [9], in [10], in [11] and in assay [12] was over 100 µM in each case. The TGI in assay [13], in [14], in assay [15] and in [16] was over 100 µM each time.

In the case of `O=C1NCC2(CCNCC2)N1c1ccccc1`, the TGI in [1], in assay [2], in assay [3], in [4], in assay [5] and in assay [7] was over 100 µM in each case. The TGI in assay [8], in assay [9], in assay [10], in assay [11], in [12] and in assay [13] was over 100 µM each time. Besides, the TGI in assay [14], in assay [15] and in [16] was over 100 µM each time.

Consider `OC1c2ccccc2[C@@H]2[C@H]1[C@@H](c1ccccc1)C1(Cc3ccccc3C1O)[C@H]2c1ccccc1` (stereo partly drawn), for which the TGI in [1] is 4.7 µM; in [2], 17.4 µM; in assay [3] it was 19.4 µM; in assay [4], 16.7 µM; in [5], 17.4 µM; in assay [6], 20.3 µM. Besides, the TGI in assay [7] was 19.2 µM; in [8], 17.9 µM; in [9], 13.7 µM; in assay [10] it was 11.1 µM; in assay [11], 26.5 µM; in assay [12], 24.1 µM. For the same compound, the TGI in assay [13] is 3.62 µM; in assay [14], 8.87 µM; in assay [15] it was 22.5 µM; in assay [16] it was 12.6 µM.

With `CC(=O)Nc1ccc(Nc2cc(=O)n(C)c(=O)[nH]2)cc1`, the TGI in assay [1], in assay [2], in assay [3], in [4], in [5] and in assay [6] was over 100 µM throughout. In addition, the TGI in assay [7], in assay [8], in assay [9], in assay [10], in [11] and in assay [12] was over 100 µM each time. In addition, the TGI in assay [13], in [14], in [15] and in assay [16] was over 100 µM throughout.

As to `CC[C@@H](CCCC[C@@H]1CC[C@H]2CC(=O)C[C@@H]12)OC`, the TGI in [1], in assay [2], in [3], in assay [4], in assay [5] and in assay [7] was over 100 µM throughout. Further, the TGI in [8], in assay [9], in assay [10], in assay [11], in assay [12] and in assay [13] was over 100 µM each time. Besides, the TGI in assay [14], in assay [15] and in assay [16] was over 100 µM each time.

On to `Cc1nc(-c2ccccc2)c(C)n2c1nc1ccccc12`, for which the TGI in assay [1] is 86.1 µM; in assay [2], over 100 µM; in [3], over 100 µM; in [5], over 100 µM; in assay [6], 79.1 µM; in assay [7], over 100 µM. The TGI in [8] is over 100 µM; in [9] it was over 100 µM; in [10], over 100 µM; in assay [11], over 100 µM; in assay [12], 98.7 µM; in assay [13] it was over 100 µM. Further, the TGI was over 100 µM in assay [14], 45.3 µM in assay [15] and 47.9 µM in assay [16].
